Measurements published in article PMC10307939 (Pharmacology Research & Perspectives, 2023).
“Also recorded” adds a separate entry of the source. Where a name gives a salt, the structure may show the parent alone.

Assays:
[1] = tested on: male and female ICR mice; assay: Horizontal locomotor activity, 60‐min session; assay type: in vivo, mouse; conditions: for Effect on locomotor activity: SC, drug alone; for Emax / ED50: Mus musculus, sc; for Emax: 1 h, read-out: E max (95%CL), % Methadone E max; for ED50: read-out: ED50 (95% CL)
[2] = target: T1, human delta‐opioid receptor (Homo sapiens, UniProt P41143); assay: Ligand‐stimulated [35S]GTPγS binding, hDOR‐CHO membranes; assay type: biochemical; conditions: for Emax: read-out: DOR E max
[3] = tested on: male and female ICR mice; assay: Naltrexone antagonism of test‐drug locomotor activation; assay type: in vivo, mouse; conditions: 1.0 mg/kg naltrexone SC 10 min before test drug
[4] = target: T2, mouse kappa opioid receptor (Mus musculus, UniProt P33534); assay: Radioligand competition binding, mKOR‐CHO membranes; conditions: for MOR/KOR (fold selectivity for MOR over KOR): K i at KOR divided by K i at MOR
[5] = target: T2, mouse kappa opioid receptor; assay: biochemical; assay type: biochemical; conditions: for Emax: read-out: KOR E max
[6] = target: T1, human delta‐opioid receptor; assay: Radioligand competition binding, hDOR‐CHO membranes; conditions: for MOR/DOR (fold selectivity for MOR over DOR): K i at DOR divided by K i at MOR
[7] = target: T3, mouse mu‐opioid receptor (Mus musculus, UniProt P42866); assay: Radioligand competition binding, mMOR‐CHO membranes; conditions: for Ki: MOR K i, [3H]naloxone, mMOR‐CHO membranes, mean ± SEM (n = 3–6)
[8] = target: T3, mouse mu‐opioid receptor; assay: Ligand‐stimulated [35S]GTPγS binding, mMOR‐CHO membranes; assay type: biochemical; conditions: for Emax: read-out: MOR E max
[9] = tested on: male and female ICR mice; assay: Test‐drug antagonism of morphine locomotor activation; assay type: in vivo, mouse; conditions: test drug SC 10 min before 32 mg/kg SC morphine

| SMILES | EC50 [2] | Emax [2] | Effect of naltrexone pretreatment on locomotor‐activating dose of test drug [3] | Ki [4] | MOR/KOR (fold selectivity for MOR over KOR) [4] | KOR E max [5] | Ki [6] | MOR/DOR (fold selectivity for MOR over DOR) [6] | Emax [1] | ED50 [1] | Ki [7] | EC50 [8] | Emax [8] | other results |
| --- | --- | --- | --- | --- | --- | --- | --- | --- | --- | --- | --- | --- | --- | --- |
| CCC(=O)C(CC(C)N(C)C)(c1ccccc1)c1ccccc1 (racemic) [Methadone, (±) Methadone HCl, reference compound] |  |  |  |  |  |  |  |  |  |  |  |  |  | Total locomotor counts ([1]; 32 mg/kg SC, 60‐min session): 7500.1 counts; Mean maximum increase in locomotor counts ([1]; 32 mg/kg vs. saline vehicle): 5149.8 counts; Effect on locomotor activity [1]: dose‐dependent increase in locomotor activity |
| C=C[C@@H]1[C@H]2CCC[C@]1(c1cccc(O)c1)CCN2CCc1ccccc1 [DC‐1‐76.1, 3‐((1R,5S,9S)‐2‐phenethyl‐9‐vinyl‐2‐azabicyclo[3.3.1]nonan‐5‐yl)phenol] | 1160 ± 214 nM | -0.7 ± 2.12% | significantly attenuated | 52.9 ± 1.11 nM | 27.7 fold | No stim | 3390 ± 268 nM | 1773.3 fold | 34.3% | 0.72 mg/kg |  |  |  |  |
| C=C[C@H]1[C@H]2CCC[C@]1(c1cccc(O)c1)CCN2CCc1ccccc1 [DC‐1‐76.2, 3‐((1R,5S,9R)‐2‐phenethyl‐9‐vinyl‐2‐azabicyclo[3.3.1]nonan‐5‐yl)phenol] | 160 ± 142 nM | -6.34 ± 0.78% | significantly attenuated | 44 ± 2.98 nM | 88.5 fold | No stim | 347 ± 45.6 nM | 698.5 fold | 87.6% | 0.47 mg/kg |  |  |  |  |
| C/C=C\[C@H]1[C@H]2CCC[C@]1(c1cccc(O)c1)CCN2CCc1ccccc1 [DC‐1‐90.2, 3‐((1R,5S,9R)‐2‐phenethyl‐9‐((Z)‐prop‐1‐en‐1‐yl)‐2‐azabicyclo[3.3.1]nonan‐5‐yl)phenol] | 253 ± 133 nM | -6.97 ± 0.46% |  | 34.5 ± 0.77 nM | 18.8 fold | No stim | 430 ± 41.7 nM | 235.0 fold |  |  |  |  |  |  |
| C/C=C\[C@@H]1[C@H]2CCC[C@]1(c1cccc(O)c1)CCN2CCc1ccccc1 [DC‐1‐128.1, 3‐((1R,5S,9S)‐2‐phenethyl‐9‐((Z)‐prop‐1‐en‐1‐yl)‐2‐azabicyclo [3.3.1]nonan‐5‐yl)phenol] | 503 ± 118 nM | 31.4 ± 2.23% | significantly attenuated | 63.3 ± 7.43 nM | 112.6 fold | no KOR activation; also recorded: No stim | 318 ± 47 nM | 565.2 fold | 80.1% | 0.19 mg/kg |  |  |  | Fold difference in [35S]GTPγS potency, MOR versus DOR ([2]; higher potency at MOR than at DOR): more than 60 fold |
| CCC[C@H]1[C@@H]2CCC[C@@]1(c1cccc(O)c1)CCN2CCc1ccccc1 [EG‐1‐203, 3‐((1S,5R,9R)‐2‐phenethyl‐9‐propyl‐2‐azabicyclo[3.3.1]nonan‐5‐yl)phenol] | 37 ± 17.7 nM | -11.6 ± 3.08% |  | 22.3 ± 4.66 nM | 29.3 fold |  | 66.5 ± 7.7 nM | 87.4 fold | 13% | 5.42 mg/kg | 0.761 ± 0.031 nM | 24.2 ± 13.8 nM | 4.79 ± 0.6% | EC50 [5]: 125 ± 88.7 nM; Emax [5]: -3.49 ± 0.67%; Effect of test‐drug pretreatment on locomotor‐activating effects of morphine [9]: significantly attenuated |
| OC/C=C/[C@H]1[C@@H]2CCC[C@@]1(c1cccc(O)c1)CCN2CCc1ccccc1 [EG‐1‐230, 3‐((1S,5R,9R)‐9‐((E)‐3‐hydroxyprop‐1‐en‐1‐yl)‐2‐phenethyl‐2‐azabicyclo[3.3.1]nonan‐5‐yl)phenol] | 517 ± 366 nM | -10.6 ± 3.58% |  | 45.9 ± 7.08 nM | 10.9 fold |  | 1010 ± 147 nM | 238.5 fold | 2.2% |  | 4.22 ± 0.177 nM | 24.1 ± 12 nM | 0.67 ± 0.79% | EC50 [5]: 20.7 ± 5.6 nM; Emax [5]: -3.97 ± 0.65%; Effect of test‐drug pretreatment on locomotor‐activating effects of morphine [9]: significantly attenuated; Effect on locomotor activity [1]: inactive when administered alone |
| OCC[C@H]1[C@@H]2CCC[C@@]1(c1cccc(O)c1)CCN2CCc1ccccc1 [JL‐2‐39, 3‐((1S,5R,9R)‐9‐(2‐hydroxyethyl)‐2‐phenethyl‐2‐azabicyclo[3.3.1]nonan‐5‐yl)phenol] |  |  | significantly attenuated | 17.1 ± 2.22 nM | 43.4 fold | No stim | 473 ± 41.2 nM | 1199.2 fold | 87.1% | 2.85 mg/kg | 0.394 ± 0.035 nM | 7.09 ± 3.7 nM | 13 ± 1.48% | Fold higher MOR affinity than DC‐1‐76.1 ([7]; relative to DC‐1‐76.1): ~ 5 fold; Fold more potent than DC‐1‐76.1 in vitro ([35S]GTPɣS binding, MOR CHO cells) ([8]; relative to DC‐1‐76.1): ~ 5 fold; Fold less potent than DC‐1‐76.1 in vivo (locomotor activity) ([1]; relative to DC‐1‐76.1): ~ 4 fold |
| CN1c2ccccc2C(NCCCCCCC(=O)O)c2ccc(Cl)cc2S1(=O)=O (centres unmarked) [Tianeptine, reference compound] |  |  | significantly attenuated |  |  | No stim | 2830 ± 416 nM |  |  |  | 78.2 ± 9.93 nM | 6440 ± 622 nM | 110 ± 3.6% |  |
